{
  "source": "patent US11591297B2",
  "about": "“Compound having PD-L1 expression-suppressing action” (TOHOKU UNIVERSITY, priority 2019, dated 2023)",
  "system": "human PD-L1 promoter",
  "assay": "Inhibitory effect of luciferase expression under control of PD-L1 promoter (A549/PD-L1luc luciferase assay, corrected by total protein)",
  "format": "cell-based",
  "details": "Homo sapiens; A549/PD-L1luc cells, 48±4 hours, RLU corrected by total protein amount; read-out: IC50 (50% inhibition value of luciferase expression)",
  "text": "A reporter vector, pPD-L1luc obtained by the insertion of a human PD-L1 promoter sequence (−2097 to 51) into the multiple cloning site of pGL-3 vector basic (Promega) expresses luciferase under the control of PD-L1 promoter when transfected into animal cells. The pPD-L1luc was transfected into a human non-small cell lung cancer-derived cell line A549 together with pPUR (Clontech) that expresses a puromycin resistance gene (puromycin-N-acetyl-transferase gene), and then cells expressing luciferase which could grow in a puromycin-supplemented medium were selected. The selected cells were named “A549/PD-L1luc cells” and used for luciferase assay as described below.\nA test compound was added into a culture liquid containing A549/PD-L1luc cells to observe the influence of the test compound on the amount of luciferase expressed in the cells. Here, it can be considered that when the test compound has a cell cytotoxicity or cell growth inhibitory effect, the total expression level of luciferase is recued due to a reduction in the number of living cells that depends on the concentration of the test compound, and thus the inhibitory effect of luciferase expression under the control of PD-L1 promoter of the test compound cannot be properly evaluated.\nA549/PD-L1luc cells were suspended in DMEM containing 10% fetal calf serum (FCS) and 1% penicillin/streptomycin (P/S) (hereinafter, referred to as “DMEM medium”) at 3×10^4 cells/mL to obtain a cell suspension, and the cell suspension was dispensed into each well of a 96-well plate in an amount of 100 μL. In order to perform the assay in triplicate, 3 wells were prepared for control group, and 3 wells were prepared for test compound-treated groups at each concentration. After the dispensation, the 96-well plate was incubated in a CO2 incubator (at 37° C. and 5% CO2) for 24±4 hours.\nEach compound of Examples 1 to 6 and Comparative Example 1 was dissolved in dimethylsulfoxide (DMSO) to obtain 50 mmol/L of a compound solution, and the compound solution was stored at −80° C. The compound solution was diluted with DMSO in 2-fold dilution series (usually, in the range of 0.04 mmol/L to 10 mmol/L) to prepare test compound solutions whose concentration varied by two fold for luciferase assay.\nEach solution of only DMSO (control) and the diluted test compound (sample) was dispensed into each well containing the cell suspension in an amount of 0.5 μL (200-fold dilution). The solution in each well was mixed with a vortex mixer, and then the 96-well plate was incubated in a CO2 incubator (at 37° C. and 5% CO2) for 48±4 hours. Luciferase Assay Substrate (hereinafter, referred to as “LAS”) supplied in Luciferase Assay Systems (Promega: Cat #E1500) was dissolved in Luciferase Assay Buffer (LAB) to prepare a luciferase reagent. 5× Cell Culture Lysis Reagent (hereinafter, referred to as “CCLR”) was diluted by 5 times with water to prepare 1×CCLR.\nAfter the incubation for 48±4 hours, the medium in each well was completely removed, and 1×CCLR was dispensed into each well in an amount of 50 μL. The plate was allowed to stand at room temperature for 30 minutes, and then 1×CCLR in each well was used as an assay sample for luciferase and total protein amount. The luciferase reagent (100 μL) was placed in a tube for chemiluminescence measurement assay, and the assay sample (20 μL) was added into the tube and mixed with the luciferase reagent to measure chemiluminescence (Relative Luminescence Intensity: RLU) using GloMax 20/20 (Promega).\nThe above-mentioned assay sample (10 μL) was diluted by 10 times with water (90 μL). Each calibration curve sample was prepared by diluting the BSA solution with water as described in Table 1.\nBCA reagent A and BCA reagent B (50:1) supplied in a kit for protein assay were mixed to prepare Working Reagent. Each of the calibration curve samples (Vials I to VI) and the 10-fold diluted assay samples was dispensed into each well of a 96-well plate in an amount of 25 μL, respectively. […]",
  "data": [
    {"smiles": "O=C(Nc1ccc(Oc2ccc(C(F)(F)F)cc2)cc1)C1CCCN(C(=O)c2ccc([N+](=O)[O-])cc2)C1", "note": "(stereo not shown) [Example 2, 1-(4-Nitrobenzoyl)-N-(4-(4-(trifluoromethyl)phenoxy)phenyl) piperidine-3-carboxamide]", "values": [
      {"measurement": "IC50", "value": 1.3, "unit": "µM"}
    ]},
    {"smiles": "COc1cc(C(=O)N2CCCC(C(=O)Nc3ccc(Oc4ccc(S(F)(F)(F)(F)F)cc4)cc3)C2)ccc1O", "note": "(stereo not shown) [Example 6, 1-(4-Hydroxy-3-methoxybenzoyl)-N-(4-(4-(pentafluorosulfanyl)phenoxy)phenyl)piperidine-3-carboxamide]", "values": [
      {"measurement": "IC50", "value": 0.61, "unit": "µM"}
    ]},
    {"smiles": "O=C(Nc1ccc(Oc2ccc(S(F)(F)(F)(F)F)cc2)cc1)C1CCCN(C(=O)c2ccc([N+](=O)[O-])cc2)C1", "note": "(stereo not shown) [Example 5, 1-(4-Nitrobenzoyl)-N-(4-(4-(pentafluorosulfanyl)phenoxy)phenyl)piperidine-3-carboxamide]", "values": [
      {"measurement": "IC50", "value": 0.62, "unit": "µM"}
    ]},
    {"smiles": "COc1cc(C(=O)N2CCCC(C(=O)Nc3ccc(Oc4ccc(C(F)(F)F)cc4)cc3)C2)ccc1O", "note": "(stereo not shown) [Example 3, 1-(4-Hydroxy-3-methoxybenzoyl)-N-(4-(4-(trifluoromethyl)phenoxy)phenyl)piperidine-3-carboxamide]", "values": [
      {"measurement": "IC50", "value": 0.61, "unit": "µM"}
    ]}
  ]
}
